Converted amounts (≈) assume the structure as drawn. Where two headings read alike, the source gives them in different places.
What was measured:
[1] = molecular target: T1, human EP2 receptors (Homo sapiens, UniProt P43116); test: cell-based cAMP TR-FRET assay, rightward shift of PGE2 concentration response curve (Schild KB), EP2; conditions: for mechanism of antagonism of EP2: Schild regression analysis
T1 construct: expressed in transfected cells
Description: KB value indicates the antagonist concentration required for a twofold rightward shift in the PGE2 dose-response curve. Thus, a lower KB value indicates a higher inhibitory potency.
(§1) The synthesis was carried out starting from commercially available 2-methyl indole or 2-trifluoromethyl indoles (11a-c), which on treatment with bromoacetonitrile provided intermediates (12a-c), which then were subjected to lithium aluminum hydride to reduce cyanide to amines. […] Synthesized derivatives were tested by using a cAMP-derived TR-FRET assay, at single concentration (1 μM) to observe a rightward shift of PGE2 (an EP2 agonist) concentration response curve in a C6G cell line that overexpresses human EP2 receptors.
A lower KB value indicates a higher inhibitory potency.
(§2) Intracellular cAMP was measured with a cell-based homogeneous time-resolved fluorescence resonance energy transfer (TR-FRET) method (Cisbio Bioassays). […] Endogenous cAMP produced by cells competes with labeled cAMP for binding to the cAMP antibody and thus reduces the FRET signal. Cells stably expressing human DP1, EP2, EP4, or IP receptors were seeded into 384-well plates in 30 μl complete medium (4,000 cells/well) and grown overnight. The medium was carefully withdrawn and 10 μl Hanks' Buffered Salt Solution (HBSS) (Hyclone) containing 20 μM rolipram was added into the wells to block phosphodiesterases. The cells were incubated at room temperature for 0.5-1 h and then treated with vehicle or test compound for 10 min before addition of increasing concentrations of appropriate agonist: BW245C for DP1, PGE2 for EP2 and EP4, or iloprost for IP. The cells were incubated at room temperature for 40 min, then lysed in 10 μl lysis buffer containing the FRET acceptor cAMP-d2 and 1 min later another 10 μl lysis buffer with anti-cAMP-Cryptate was added. After 60-90 min incubation at room temperature, the FRET signal was measured by an Envision 2103 Multilabel Plate Reader (PerkinElmer Life Sciences) with a laser excitation at 337 nm and dual emissions at 665 nm and 590 nm for d2 and Cryptate (50 s delay), respectively. The FRET signal was expressed as: F665/F590×10^4.

[2] = aqueous solubility by nephelometry; conditions: for aqueous solubility (in words): PBS buffer (pH 7.4) with 1% DMSO, nephelometry
[3] = molecular target: T2, human EP4 receptors (Homo sapiens, UniProt P35408); test: cell-based cAMP TR-FRET assay, EP4 (agonist PGE2); conditions: for Selective Index EP4/EP2 / potency estimated from few doses: Table 2; for potency estimated from few doses: extrapolated Schild KB from single concentration of 10 μM
T2 construct: expressed in transfected cells
Description: (§3) These derivatives were selected for testing against EP4 and IP receptors. Cell lines were created that overexpress EP4 receptors, or IP receptors on C6-glioma cells. A cAMP-derived TR-FRET assay was developed using agonists PGE2 (for EP4) and iloprost (for IP), similar to EP2 assay.
as §2

[4] = molecular target: T3, human DP1 receptors (Homo sapiens, UniProt Q13258); test: cell-based cAMP TR-FRET assay, DP1 (agonist BW245C); conditions: Table 2; for Kb: read-out: KB DP1
T3 construct: expressed in transfected cells
T3 sequence (Q13258 1-359): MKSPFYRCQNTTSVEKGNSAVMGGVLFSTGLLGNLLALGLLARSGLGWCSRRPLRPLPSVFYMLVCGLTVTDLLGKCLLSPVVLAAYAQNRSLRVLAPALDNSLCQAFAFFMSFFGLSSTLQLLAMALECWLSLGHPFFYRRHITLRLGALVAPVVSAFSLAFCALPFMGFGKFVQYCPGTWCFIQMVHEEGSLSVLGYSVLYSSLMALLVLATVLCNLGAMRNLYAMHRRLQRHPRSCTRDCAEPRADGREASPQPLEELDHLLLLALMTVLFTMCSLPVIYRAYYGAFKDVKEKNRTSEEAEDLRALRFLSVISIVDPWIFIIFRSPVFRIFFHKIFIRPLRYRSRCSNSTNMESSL
Description: as §1
as §2, with “After 60-90 min incubation at room temperature, the FRET signal was measured by an Envision 2103 Multilabel Plate Reader (PerkinElmer Life Sciences) with a laser excitation at 337 nm and dual emissions at 665 nm and 590 nm for d2 and Cryptate (50 s delay), respectively.” left out

[5] = molecular target: T4, human IP receptors (Homo sapiens, UniProt P43119); test: cell-based cAMP TR-FRET assay, IP (agonist iloprost); conditions: Table 2; for potency estimated from few doses: extrapolated Schild KB from single concentration of 10 μM
T4 construct: expressed in transfected cells
Description: as §3, §2

[6] = tested on: C6-glioma cells
Description: (§4) CC50 are average one measurement run in triplicate.
(§5) Several of compounds were examined against EP4 and IP receptors at single concentration of 10 μM.

[7] = in vitro; conditions: rat
Description: as §4, §5

[8] = liver microsomal stability, human
[9] = liver microsomal stability, mouse
[10] = pH 7.4
[11] = mouse, in vivo
[12] = physchem; conditions: pH 7.4, aqueous buffer, kinetic from dmso stock
[13] = Table 1, Schild KB from single antagonist concentration 1 μM, average of 2-3 measurements in duplicate, read-out: EP2 KB
[14] = single concentration values, read-out: EP2 potency (Schild KB)
[15] = Table 3, PBS buffer (pH 7.4) with 1% DMSO by nephelometry

T2 sequence (P35408 whole entry): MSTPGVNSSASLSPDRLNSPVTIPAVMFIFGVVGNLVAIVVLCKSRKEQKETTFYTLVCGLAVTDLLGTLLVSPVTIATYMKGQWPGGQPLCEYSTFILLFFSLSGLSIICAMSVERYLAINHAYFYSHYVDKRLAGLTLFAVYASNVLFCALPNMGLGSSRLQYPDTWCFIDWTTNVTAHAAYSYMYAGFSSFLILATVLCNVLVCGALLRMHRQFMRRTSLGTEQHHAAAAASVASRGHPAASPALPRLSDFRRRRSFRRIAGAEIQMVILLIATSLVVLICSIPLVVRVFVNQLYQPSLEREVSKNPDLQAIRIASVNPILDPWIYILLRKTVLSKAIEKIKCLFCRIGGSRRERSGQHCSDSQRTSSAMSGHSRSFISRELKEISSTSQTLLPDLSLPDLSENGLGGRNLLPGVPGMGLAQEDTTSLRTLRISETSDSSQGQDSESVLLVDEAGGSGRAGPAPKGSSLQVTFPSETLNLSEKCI
T4 sequence (P43119 whole entry): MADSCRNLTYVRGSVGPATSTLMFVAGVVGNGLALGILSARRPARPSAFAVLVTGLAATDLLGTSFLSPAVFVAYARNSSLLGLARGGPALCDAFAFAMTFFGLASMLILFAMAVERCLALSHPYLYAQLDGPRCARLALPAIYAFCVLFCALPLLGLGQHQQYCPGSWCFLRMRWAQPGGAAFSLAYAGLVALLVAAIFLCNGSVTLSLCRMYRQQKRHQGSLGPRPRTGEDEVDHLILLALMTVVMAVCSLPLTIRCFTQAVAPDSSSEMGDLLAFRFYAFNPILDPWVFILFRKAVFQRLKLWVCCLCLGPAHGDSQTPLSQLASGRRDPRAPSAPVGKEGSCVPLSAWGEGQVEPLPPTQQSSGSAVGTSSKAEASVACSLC
T1 sequence (P43116 whole entry): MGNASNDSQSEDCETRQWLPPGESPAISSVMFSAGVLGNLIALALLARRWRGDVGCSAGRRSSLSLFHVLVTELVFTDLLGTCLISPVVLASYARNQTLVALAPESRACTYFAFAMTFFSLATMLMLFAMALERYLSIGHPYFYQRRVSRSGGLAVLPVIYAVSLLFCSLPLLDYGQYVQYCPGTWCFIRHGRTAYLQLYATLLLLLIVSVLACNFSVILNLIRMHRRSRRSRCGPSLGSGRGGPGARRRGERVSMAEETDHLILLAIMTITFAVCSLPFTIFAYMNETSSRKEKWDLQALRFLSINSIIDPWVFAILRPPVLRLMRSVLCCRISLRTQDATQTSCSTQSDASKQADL

## Cc1cc2ccccc2n1CCNC(=O)c1ccc(N2CCC(C(=O)O)CC2)cc1 [Compound 7n]
[1]; [13]
  Kb: 0.0897 µM
[2]
  aqueous solubility (in words): high aqueous solubility

## Cc1cc2ccccc2n1CCNC(=O)c1ccc(N2CCOCC2)c(F)c1 [Compound 7t]
[3]; EP2 over EP4
  selectivity over EP4: ~600 fold
[3]
  Selective Index EP4/EP2: 565
  potency estimated from few doses: 14.5 µM
[4]
  Selective Index (DP1/EP2): 85
[5]
  Selective Index (IP/EP2): 217
  potency estimated from few doses: 5.6 µM
[6]; rat
  Therapeutic Index (CC50/EP2 KB): >19,450
[7]
  CC50: > 500 µM

## Cc1cc2ccccc2n1CCNC(=O)c1ccc(-c2nnn[nH]2)cc1 [Compound 7z]
[3]
  potency estimated from few doses: > 10000 µM
[5]
  potency estimated from few doses: > 10000 µM
[7]
  CC50: > 300 µM
[2]
  aqueous solubility (in words): high aqueous solubility

## Cc1cc2ccccc2n1CCNC(=O)c1ccc2c(c1)n(C)c(=O)n2C [Compound 8a, 1,3-Dimethyl-N-(2-(2-methyl-1H-indol-1-yl)ethyl)-2-oxo-2,3-dihydro-1H-benzo[d]imidazole-5-carboxamide]
[1]; [13]
  Kb: 0.0209 µM
[3]
  Selective Index EP4/EP2: 1730
  potency estimated from few doses: 36.1 µM
[4]
  Selective Index (DP1/EP2): 300
  Kb: 6.29 µM
[5]
  Selective Index (IP/EP2): 1200
  potency estimated from few doses: 25.2 µM
[6]; rat
  CC50: 154 µM
  Therapeutic Index (CC50/EP2 KB): 7,370
  concentration showing an effect on cell viability: > 100 µM

## CCN(CC)c1ccc(C(=O)NCCc2c(C)[nH]c3ccccc23)cc1 [Compound 9a, 4-(Diethylamino)-N-(2-(2-methyl-1H-indol-3-yl)ethyl)benzamide]
[1]
  mechanism of antagonism of EP2: competitive
[1]; [13]
  Kb: 0.0069 µM
[1]; [14]
  Kb: ~0.01 µM
[3]
  Selective Index EP4/EP2: 6,945
  potency estimated from few doses: 48 µM
[4]
  Selective Index (DP1/EP2): 1374
  Kb: 9.48 µM
[5]
  potency estimated from few doses: > 10000 µM
[6]; rat
  Therapeutic Index (CC50/EP2 KB): >72,460
[7]
  CC50: > 500 µM

## COc1cc(/C=C/C(=O)NCCn2c(C)cc3ccccc32)cc(OC)c1OC [Compound 15a]
[6]; read-out: Cytotoxicity (CC50), Table 4
  CC50: 172 µM
[8]; 1 μM
  % of Parent Compound Remaining at 60 min vs. T = 0 min, Human Liver Microsomes: 0.1%
[8]; 10 μM
  % of Parent Compound Remaining at 60 min vs. T = 0 min, Human Liver Microsomes: 10.6%
[9]; 1 μM
  % of Parent Compound Remaining at 60 min vs. T = 0 min, Mouse Liver Microsomes: 0.2%
[9]; 10 μM
  % of Parent Compound Remaining at 60 min vs. T = 0 min, Mouse Liver Microsomes: 4.8%
[9]; at 1 μM concentration
  % remaining at 60 minutes in mouse liver microsomes: 0.2%
[2]; [15]
  Solubility: 45 µM (≈ 17.8 µg/mL)

## COc1cc(/C=C/C(=O)NCCn2c(CN3CCOCC3)cc3ccccc32)cc(OC)c1OC [Compound 15l]
[2]; [15]
  Solubility: 91 µM (≈ 43.6 µg/mL)

## COc1cc(/C=C/C(=O)NCCn2c(CNC3CCN(C)CC3)cc3ccccc32)cc(OC)c1OC [Compound 15m]
[2]; [15]
  Solubility: 180 µM (≈ 91.2 µg/mL)

## Cc1cc2ccccc2n1CCNC(=O)/C=C/c1ccc(OCCO)c(OCCO)c1 [Compound 16a, (E)-3-(3,4-bis(2-hydroxyethoxy)phenyl)-N-(2-(2-methyl-1H-indol-1-yl)ethyl)acrylamide]
[1]
  mechanism of antagonism of EP2: competitive
[10]
  Solubility: 153 µM (≈ 64.9 µg/mL)
[11]; ip, 5 mg/kg
  C-max: 1510 ± 142 ng/mL
  T1/2 (plasma): 1.49 h
[11]; po, 10 mg/kg
  C-max: 128 ± 23 ng/mL
  T1/2 (plasma): 1.44 h

## O=C(/C=C/c1ccc(OCCO)c(OCCO)c1)NCCn1c(C(F)(F)F)cc2ccccc21 [Compound 16b]
[10]
  Solubility: 67 µM (≈ 32.1 µg/mL)
[12]
  Solubility: 67 µM (≈ 32.1 µg/mL)

## Cc1[nH]c2ccccc2c1CCNC(=O)/C=C/c1ccc(OCCO)c(OCCO)c1 [Compound 16c, (E)-3-(3,4-bis(2-hydroxyethoxy)phenyl)-N-(2-(2-methyl-1H-indol-3-yl)ethyl)acrylamide]
[8]; 1 μM
  % of Parent Compound Remaining at 60 min vs. T = 0 min, Human Liver Microsomes: 58.5%
[8]; 10 μM
  % of Parent Compound Remaining at 60 min vs. T = 0 min, Human Liver Microsomes: 70.4%
[9]; 1 μM
  % of Parent Compound Remaining at 60 min vs. T = 0 min, Mouse Liver Microsomes: 7.1%
[9]; 10 μM
  % of Parent Compound Remaining at 60 min vs. T = 0 min, Mouse Liver Microsomes: 19.3%
[2]
  aqueous solubility (in words): very soluble
[2]; [15]
  Solubility: 235 µM (≈ 99.8 µg/mL)

## Cc1[nH]c2ccccc2c1CCNC(=O)/C=C/c1ccc(OCCO)cc1 [Compound 16d]
[1]; Table 3, Schild KB from single concentration 1 μM, read-out: EP2 KB
  Kb: 0.0136 µM
[1]; Table 4, read-out: KB EP2
  Kb: 0.0136 µM
[1]; [14]
  Kb: 0.0114 to 0.0136 µM
[7]
  CC50: 81.7 µM
[2]; PBS buffer, pH 7.4, aqueous buffer, kinetic from dmso stock
  Solubility: 68 µM (≈ 24.8 µg/mL)

## Cc1cc2ccccc2n1CCNC(=O)/C=C/c1ccc(OCCCO)cc1 [Compound 16e]
[2]; [15]
  Solubility: 66 µM (≈ 25 µg/mL)
